Data set [1] relates to contamination of culture media. To be noted: plants cultivated in vitro; cited from earlier work.
The test system of another data set is Musa sp. As to the kind of experiment: Development of "in vitro" plants of Musa sp., multiplication phase (scaleup). To be noted: scaleups, standard method 1%. The procedure: An effective washout of the flasks and lids to be used in the production of in vitro plants was conducted using detergent, rinsing them with sufficient water and to then submerging the bottles in a sodium hypochlorite solution at 0.5% for a time interval never smaller than 3 minutes. Afterwards, the flasks are placed upside down and they should be used totally dry before 24 hours.
Once the culture medium is prepared and reaches a temperature of approximately 60-80° C. it is added the necessary weight of the formulation to obtain a concentration of 35 μg/ml and, then the volume required is poured into each of the flasks proceeding to the planting procedure after 24 hours.
Two scaleup studies were conducted on a Musa sp. culture in the multiplication phase. The death rate percentage during the three assays was 0.81% for the scaleups conducted adding the active principle and 1% for the standard method.
Two scaleup studies were conducted on a Musa sp. culture in the multiplication phase.

The nature of data set [2]: Water solubility and dissolution of active principle. It counts as physicochemical.
Data set [3] can be described thus: Thermal stability of active principle. It counts as physicochemical.
A further data set relates to bacteria and fungi. Particulars: EP-A 0 678 516; cited from earlier work.

For `CO[C@@H]1[C@@H](OC(N)=O)[C@@H](O)[C@H](Oc2ccc3c(O)c(NC(=O)c4ccc(O)c(CC=C(C)C)c4)c(=O)oc3c2C)OC1(C)C` [Novobiocin], in data set [1], the Prevention of contamination entry is given as “without satisfactory results”.
Turning to `CO/N=C(\C(=O)N[C@@H]1C(=O)N2C(C(=O)O)=C(COC(C)=O)CS[C@H]12)c1csc(N)n1` [Cefotaxim], the Prevention of contamination entry in data set [1] was “without satisfactory results”.
As for `CN[C@@H]1[C@H](O[C@H]2[C@H](O[C@H]3[C@H](O)[C@@H](O)[C@H](NC(=N)N)[C@@H](O)[C@@H]3NC(=N)N)O[C@@H](C)[C@]2(O)CO)O[C@@H](CO)[C@H](O)[C@H]1O` [Dihydrostreptomycin], in data set [1], the Prevention of contamination entry was “without satisfactory results”.
Take `O=[N+]([O-])C(Br)=Cc1ccc(Br)o1` [1-(5-bromophur-2-yl)-2-bromo-2-nitroethene]: the Death rate percentage with Musa sp. was 0.81%. In addition, in data set [2] (aqueous medium), the “Dissolution rate in an aqueous medium” value is listed as “reduced dissolution rate”. Further, the Water solubility result in data set [2] (water) is “close-to-null water solubility”. Further, the “Thermally stable up to” value in data set [3] is “up to 110 °C”. Moreover, the “Antibacterial and antifungal activities” value in the data set on bacteria and fungi was “powerful agent with antibacterial and antifungal activities”.

Values taken from US6316014A, “Microcide composition” (Centro de Bioactivos Quimicos (CBQ), priority 1996, dated 2001).
